Results published in ChEMBL document CHEMBL3046536, “Synthesis, crystal structure, and insecticidal activity of novel N-alkyloxyoxalyl derivatives of 2-arylpyrrole” (2008).

Tests used:
Assay type in all cases: functional
Tetranychus cinnabarinus [1] = assay: Insecticidal activity against Tetranychus cinnabarinus (carmine spider mite) infested on Sieva bean plants leaves exposed to compound formulation at 50 mg/kg assessed as insect mortality measured 2 days post compound treatment; conditions: 48 h
Tetranychus cinnabarinus [2] = assay: Insecticidal activity against Tetranychus cinnabarinus (carmine spider mite) infested on Sieva bean plants leaves exposed to compound formulation at 100 mg/kg assessed as insect mortality measured 2 days post compound treatment; conditions: 48 h
Mythimna separata [3] = assay: Insecticidal activity against Mythimna separata (Oriental armyworm) fourth-instar larvae infested compound pre-treated corn leaves assessed as insect mortality at 20 mg/kg measured 2 days post compound treatment
Tetranychus cinnabarinus [4] = assay: Insecticidal activity against Tetranychus cinnabarinus (carmine spider mite) infested on Sieva bean plants leaves exposed to compound formulation at 200 mg/kg assessed as insect mortality measured 2 days post compound treatment; conditions: 48 h
Mythimna separata [5] = assay: Insecticidal activity against Mythimna separata (Oriental armyworm) fourth-instar larvae infested compound pre-treated corn leaves assessed as insect mortality at 10 mg/kg measured 2 days post compound treatment
Culex pipiens pallens [6] = assay: Insecticidal activity against Culex pipiens pallens (mosquito) fourth-instar larvae assessed as insect mortality at 0.25 mg/kg measured 2 days post compound treatment; conditions: 48 h
Culex pipiens pallens [7] = assay: Insecticidal activity against Culex pipiens pallens (mosquito) fourth-instar larvae assessed as insect mortality at 0.1 mg/kg measured 2 days post compound treatment; conditions: 48 h
Culex pipiens pallens [8] = assay: Insecticidal activity against Culex pipiens pallens (mosquito) fourth-instar larvae assessed as insect mortality at 0.5 mg/kg measured 2 days post compound treatment; conditions: 48 h
Mythimna separata [9] = assay: Insecticidal activity against Mythimna separata (Oriental armyworm) fourth-instar larvae infested compound pre-treated corn leaves assessed as insect mortality at 5 mg/kg measured 2 days post compound treatment

In the case of `C/C=C/NC(=O)C(=O)OCn1c(-c2ccc(Cl)cc2)c(C#N)c(Br)c1C(F)(F)F`, the mortality at 50 mg/kg (Tetranychus cinnabarinus [1]) is reported as 89%, the mortality at 100 mg/kg (Tetranychus cinnabarinus [2]) is reported as 93% and the mortality at 20 mg/kg (Mythimna separata [3]) is reported as 100%. For the same molecule, the mortality at 200 mg/kg (Tetranychus cinnabarinus [4]) was 96% and the mortality at 10 mg/kg (Mythimna separata [5]) was 15%.
Molecule `N#Cc1c(Br)c(C(F)(F)F)n(COC(=O)C(=O)NC2CCCCC2)c1-c1ccc(Cl)cc1` has a mortality at 100 mg/kg (Tetranychus cinnabarinus [2]) of 46%, a mortality at 20 mg/kg (Mythimna separata [3]) of 100% and a mortality at 200 mg/kg (Tetranychus cinnabarinus [4]) of 76%. It also gave a mortality at 10 mg/kg (Mythimna separata [5]) of 20%, a mortality at 0.25 mg/kg (Culex pipiens pallens [6]) of 90% and a mortality at 0.1 mg/kg (Culex pipiens pallens [7]) of 20%. For the same molecule, the mortality at 0.5 mg/kg (Culex pipiens pallens [8]) was 100%.
`N#Cc1c(Br)c(C(F)(F)F)n(COC(=O)C(=O)Nc2ccccc2)c1-c1ccc(Cl)cc1` gave a mortality at 50 mg/kg (Tetranychus cinnabarinus [1]) of 86%, a mortality at 100 mg/kg (Tetranychus cinnabarinus [2]) of 92% and a mortality at 20 mg/kg (Mythimna separata [3]) of 100%. The mortality at 200 mg/kg (Tetranychus cinnabarinus [4]) was 99%, the mortality at 10 mg/kg (Mythimna separata [5]) was 0% and the mortality at 0.25 mg/kg (Culex pipiens pallens [6]) was 30%. For the same molecule, the mortality at 0.1 mg/kg (Culex pipiens pallens [7]) was 0% and the mortality at 0.5 mg/kg (Culex pipiens pallens [8]) was 100%.
Molecule `Cc1ccccc1NC(=O)C(=O)OCn1c(-c2ccc(Cl)cc2)c(C#N)c(Br)c1C(F)(F)F` has a mortality at 20 mg/kg (Mythimna separata [3]) of 100%, a mortality at 10 mg/kg (Mythimna separata [5]) of 10% and a mortality at 0.25 mg/kg (Culex pipiens pallens [6]) of 100%. For the same molecule, the mortality at 0.1 mg/kg (Culex pipiens pallens [7]) was 100% and the mortality at 0.5 mg/kg (Culex pipiens pallens [8]) was 100%.
`Cc1ccc(NC(=O)C(=O)OCn2c(-c3ccc(Cl)cc3)c(C#N)c(Br)c2C(F)(F)F)cc1` was tested, and the mortality at 50 mg/kg (Tetranychus cinnabarinus [1]) was 79%, the mortality at 100 mg/kg (Tetranychus cinnabarinus [2]) was 90% and the mortality at 20 mg/kg (Mythimna separata [3]) was 100%. For the same molecule, the mortality at 200 mg/kg (Tetranychus cinnabarinus [4]) was 96%, the mortality at 10 mg/kg (Mythimna separata [5]) was 10% and the mortality at 0.25 mg/kg (Culex pipiens pallens [6]) was 100%. For the same molecule, the mortality at 0.1 mg/kg (Culex pipiens pallens [7]) was 40% and the mortality at 0.5 mg/kg (Culex pipiens pallens [8]) was 100%.
`N#Cc1c(Br)c(C(F)(F)F)n(COC(=O)C(=O)Nc2ccccc2Cl)c1-c1ccc(Cl)cc1` was tested, and the mortality at 100 mg/kg (Tetranychus cinnabarinus [2]) was 51%, the mortality at 20 mg/kg (Mythimna separata [3]) was 100% and the mortality at 200 mg/kg (Tetranychus cinnabarinus [4]) was 71%. The mortality at 10 mg/kg (Mythimna separata [5]) was 30%.
Molecule `N#Cc1c(Br)c(C(F)(F)F)n(COC(=O)C(=O)Nc2ccc(Cl)cc2)c1-c1ccc(Cl)cc1` has a mortality at 50 mg/kg (Tetranychus cinnabarinus [1]) of 84%, a mortality at 100 mg/kg (Tetranychus cinnabarinus [2]) of 92% and a mortality at 20 mg/kg (Mythimna separata [3]) of 100%. It also gave a mortality at 200 mg/kg (Tetranychus cinnabarinus [4]) of 100%, a mortality at 10 mg/kg (Mythimna separata [5]) of 20% and a mortality at 0.25 mg/kg (Culex pipiens pallens [6]) of 10%. The mortality at 0.1 mg/kg (Culex pipiens pallens [7]) was 0% and the mortality at 0.5 mg/kg (Culex pipiens pallens [8]) was 100%.
`CC(C)COC(=O)C(=O)OCn1c(-c2ccc(Cl)cc2)c(C#N)c(Br)c1C(F)(F)F` showed a mortality at 20 mg/kg (Mythimna separata [3]) of 100%, a mortality at 200 mg/kg (Tetranychus cinnabarinus [4]) of 100% and a mortality at 10 mg/kg (Mythimna separata [5]) of 100%. The mortality at 0.25 mg/kg (Culex pipiens pallens [6]) was 90%, the mortality at 0.1 mg/kg (Culex pipiens pallens [7]) was 10% and the mortality at 5 mg/kg (Mythimna separata [9]) was 0%. For the same molecule, the mortality at 0.5 mg/kg (Culex pipiens pallens [8]) was 100%.
For `CCC(C)OC(=O)C(=O)OCn1c(-c2ccc(Cl)cc2)c(C#N)c(Br)c1C(F)(F)F` (configuration not stated), the mortality at 20 mg/kg (Mythimna separata [3]) was 100%, the mortality at 200 mg/kg (Tetranychus cinnabarinus [4]) was 100% and the mortality at 10 mg/kg (Mythimna separata [5]) was 100%. The mortality at 0.25 mg/kg (Culex pipiens pallens [6]) was 90%, the mortality at 0.1 mg/kg (Culex pipiens pallens [7]) was 10% and the mortality at 5 mg/kg (Mythimna separata [9]) was 0%. The mortality at 0.5 mg/kg (Culex pipiens pallens [8]) was 100%.
`CC(C)(C)OC(=O)C(=O)OCn1c(-c2ccc(Cl)cc2)c(C#N)c(Br)c1C(F)(F)F` showed a mortality at 20 mg/kg (Mythimna separata [3]) of 100% and a mortality at 10 mg/kg (Mythimna separata [5]) of 10%.
`N#Cc1c(Br)c(C(F)(F)F)n(COC(=O)C(=O)OCC2CCCC2)c1-c1ccc(Cl)cc1` gave a mortality at 50 mg/kg (Tetranychus cinnabarinus [1]) of 84%, a mortality at 100 mg/kg (Tetranychus cinnabarinus [2]) of 90% and a mortality at 20 mg/kg (Mythimna separata [3]) of 100%. It also gave a mortality at 200 mg/kg (Tetranychus cinnabarinus [4]) of 100%, a mortality at 10 mg/kg (Mythimna separata [5]) of 30% and a mortality at 0.25 mg/kg (Culex pipiens pallens [6]) of 100%. The mortality at 0.1 mg/kg (Culex pipiens pallens [7]) was 20% and the mortality at 0.5 mg/kg (Culex pipiens pallens [8]) was 100%.
In the case of `N#Cc1c(Br)c(C(F)(F)F)n(COC(=O)C(=O)OC2CCCCC2)c1-c1ccc(Cl)cc1`, the mortality at 20 mg/kg (Mythimna separata [3]) is reported as 100%, the mortality at 10 mg/kg (Mythimna separata [5]) is reported as 20% and the mortality at 0.25 mg/kg (Culex pipiens pallens [6]) is reported as 90%. For the same molecule, the mortality at 0.1 mg/kg (Culex pipiens pallens [7]) was 20% and the mortality at 0.5 mg/kg (Culex pipiens pallens [8]) was 100%.
For `C/C=C/OC(=O)C(=O)OCn1c(-c2ccc(Cl)cc2)c(C#N)c(Br)c1C(F)(F)F`, the mortality at 20 mg/kg (Mythimna separata [3]) was 100%, the mortality at 10 mg/kg (Mythimna separata [5]) was 30% and the mortality at 0.25 mg/kg (Culex pipiens pallens [6]) was 100%. It also gave a mortality at 0.1 mg/kg (Culex pipiens pallens [7]) of 80% and a mortality at 0.5 mg/kg (Culex pipiens pallens [8]) of 100%.
With `N#Cc1c(Br)c(C(F)(F)F)n(COC(=O)C(=O)OCCF)c1-c1ccc(Cl)cc1` the mortality at 50 mg/kg (Tetranychus cinnabarinus [1]) was 83%, the mortality at 100 mg/kg (Tetranychus cinnabarinus [2]) was 92% and the mortality at 20 mg/kg (Mythimna separata [3]) was 100%. The mortality at 200 mg/kg (Tetranychus cinnabarinus [4]) was 100%, the mortality at 10 mg/kg (Mythimna separata [5]) was 10% and the mortality at 0.25 mg/kg (Culex pipiens pallens [6]) was 100%. The mortality at 0.1 mg/kg (Culex pipiens pallens [7]) was 100% and the mortality at 0.5 mg/kg (Culex pipiens pallens [8]) was 100%.
